Here are results for 1 compound from ChEMBL document CHEMBL1667780, “Identification of a novel small molecule targeting UQCRB of mitochondrial complex III and its anti-angiogenic activity” (Bioorg Med Chem Lett, 2011).

The target of assay [1] is T1, Cytochrome b-c1 complex subunit 7 (Homo sapiens) (UniProt P14927).
T1 sequence (whole entry): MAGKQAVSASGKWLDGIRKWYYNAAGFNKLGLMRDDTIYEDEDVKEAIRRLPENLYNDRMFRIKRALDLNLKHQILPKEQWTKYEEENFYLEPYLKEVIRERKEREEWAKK
As to the kind of experiment: Binding affinity to human UQCRB at 25 uM by surface plasmon resonance assay. For orientation: In SPR one partner is held on a chip, and binding of the other changes the refractive index at the surface.

For assay [2], the target named is T1, Cytochrome b-c1 complex subunit 7 (Homo sapiens). Description: Binding affinity to UQCRB in HUVEC at 30 uM after 24 hrs by ter-caumarin competitive binding assay. It is filed as cell-based.

Calls of active or inactive are those of the source. The calls are words filed in the database; no cut-off is given here.

With `C/C1=C\C[C@]2(C)C(=O)C(O)=C([C@H](C)CO)[C@H]2C/C=C(\C)[C@@H](O)CC/C(C)=C/CC1`, the outcome in assay [1] and in assay [2] was Active.
